From article PMC11737796 (PLOS ONE, 2025)
Values joined by “and” are separate entries in the source; they are usually repeats but may differ in a detail not shown here. Equal values may be shown once. Read-outs that look alike come from different tables or passages of the source.

Key:
thymic lymphomas [1] = details: mice; cited from earlier work
thymic lymphomas [2] = details: rats; cited from earlier work
[3] = test system: IL-17A production in primary human Th17 cells; test: Primary human Th17 cell assay (IL-17A release); assay type: cell-based
Method: Peripheral blood mononuclear cells were isolated from heparin treated human whole blood from healthy donors by density gradient centrifugation. […] On day 4, supernatants were collected and IL-17A was measured using a Human IL-17A HTRF Assay kit (Cisbio/PerkinElmer, MA, USA) according to the manufacturer’s protocol.
Genedata Screener® software (Genedata, Inc., Basel, Switzerland) was used for data normalization, curve fitting and calculation of IC50 for IL-17A inhibition as well as for cell viability. Raw data from the Human IL-17A HTRF Assay and CellTiter-Glo® Luminescent Cell Viability assay was transformed to % effect according to the formula:
Compound % effect = 100*[(X-min)/(max-min)],
where X represents the effect in the presence of test compound. […] For the cell viability calculations, 2-(2,2-dicyclohexylethyl)piperidine at 10 μM was used as maximal toxicity control while DMSO was used as minimal toxicity control. A four-parameter logistic smart fit method in the Analyser application of the Genedata® Screener software was used for curve fitting of the % effect data and IC50 calculation.

thymocyte numbers = details: bi-daily administration of 10 mg/kg, after two days; cited from earlier work
mouse thymocytes = test: Mouse thymocyte apoptosis assay ex vivo; assay type: cell-based; details: 26 hours, AnnexinV and 7AAD staining
Method: The thymus from a female C57BL/6NCrl (Charles River) mouse aged around 7 weeks was dissected out after giving the mouse a lethal i.p. injection of penthobarbital. Single cell suspension of thymocytes was prepared by disrupting the thymus through a 70 μm cell strainer with the top of a sterile 5 ml syringe plunger in DPBS (without Ca/Mg). Cells were filtered through a 40 μm cell strainer and washed in serum-free media before being resuspended in complete media (RPMI1640 with L-glutamine supplemented with 10% heat inactivated foetal bovine serum (FBS) (Gibco/Invitrogen) and 50 μM 2-mercaptoethanol (Gibco/Invitrogen).
Cells were seeded at 500 000 cells/well in 96-well plates (U-bottom, cat #3799, Corning, MA, USA) in the presence of compounds or DMSO and cultured for 26 hours (37°C, 5% CO2). The thymocytes were then washed twice in cold DPBS (without Ca/Mg) and stained with APC AnnexinV (#550475, BD Pharmingen, BD Biosciences, CA, USA) and 7AAD (#559925, BD Pharmingen) in AnnexinV Binding buffer (#556454, BD Pharmingen) for 15 minutes at RT (dark) in order to separate live cells from dead, early apoptotic and late apoptotic cells when analysed on the BD Accuri C6 (BD Biosciences, CA, USA).
The compound effect on the percentage of surviving cells relative to the DMSO control were calculated using the following formula; […]

human RORα LBD = target: T1, human RORα LBD (Homo sapiens, UniProt P35398); test: RORα co-factor recruitment assay; assay type: biochemical; details: raw points; for RORa agonism Response (%): agonism mode; for RORa inverse agonism Response (%): inverse agonism mode
T1 construct: 180 nM Protein (His6-tcs-hRORαLBD)
T1 sequence (P35398 272-510 limits assumed): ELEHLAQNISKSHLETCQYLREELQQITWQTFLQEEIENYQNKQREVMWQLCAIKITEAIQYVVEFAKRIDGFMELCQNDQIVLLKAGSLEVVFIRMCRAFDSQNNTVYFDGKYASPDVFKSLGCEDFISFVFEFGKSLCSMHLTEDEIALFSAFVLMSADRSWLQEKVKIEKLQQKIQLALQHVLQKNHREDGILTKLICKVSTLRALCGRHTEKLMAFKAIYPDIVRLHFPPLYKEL
Method: The assay was run in black 384 well plates (Greiner: 784900). A 0.2 μl volume of a fixed concentration range of test ligands dissolved in DMSO were added to assay plates using an acoustic liquid dispenser. Two pre-mixes were prepared in falcon tubes. Pre-mix 1 comprised 180 nM Protein (His6-tcs-hRORαLBD) and 8 nM Lance Eu-W1024-anti 6xHis in assay buffer, 50 mM Hepes pH7.4, 100 mM NaCl, 0.1% (w/v) BSA, 1 mM TCEP which was incubated for 30 minutes at room temperature before dispensing 10 μl to assay plates. Then, pre-mix 2 comprising 200 nM biotinylated PGC1alpha peptide and 50 nM streptavidin APC in assay buffer, was prepared and incubated for 30 minutes at room temperature before adding 10 μl to assay plates containing test compound and premix 1. Plates were incubated at room temperature for 1 hour in the dark, prior to reading in a Pherastar multi-mode plate reader (BMG LABTECH) using HTRF filter set (ex 320 nm, em 612 and 665 nm). The FRET signal at 665 nm was divided by the signal at 612 nm and multiplied by 10,000 to generate a signal ratio value for each well.
(§1) The raw data from the radio-ligand and co-factor recruitment assays were transformed to % effect using the equation:
(§2) Compound % effect = 100*[(X-min)/(max-min)]
(§3) where X represents the effect in the presence of test compound and max and min are the effects in presence of the maximum and minimum controls respectively.
(§4) The data was plotted to generate concentration response profiles and the concentration-response curves were fitted to the data using the non-linear regression analysis; 4 parameter logistic smart fit method in the Analyser application of the Genedata® Screener software (Genedata, Inc., Basel, Switzerland). […] Ki was calculated from the IC50 value using the equation Ki = IC50/1+[L]/Kd)

[4] = Mouse plasma protein binding; assay type: in vitro ADME
Text: Table 1 Overview of compound potencies in multiple assays. | column: 1; 2; 3; 4; 5; 6

IMQ model = details: cited from earlier work
[5] = target: T2, recombinant murine RORγt LBD (Mus musculus, UniProt P51450); test: Murine RORγt radioligand competition binding assay; details: for Mouse ligand binding Response (%): raw points of replicate experiments
T2 construct: 10nM purified HN-AVI-GST-TCS-mRORγ(aa256-516) was mixed with
T2 sequence (P51450 256-516): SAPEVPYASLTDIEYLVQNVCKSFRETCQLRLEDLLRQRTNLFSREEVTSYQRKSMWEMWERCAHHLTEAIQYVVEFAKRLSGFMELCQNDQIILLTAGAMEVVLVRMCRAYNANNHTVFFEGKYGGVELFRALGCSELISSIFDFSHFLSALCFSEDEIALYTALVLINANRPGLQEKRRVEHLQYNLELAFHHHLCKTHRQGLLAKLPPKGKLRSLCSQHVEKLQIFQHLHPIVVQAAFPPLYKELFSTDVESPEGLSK
Method: The assay was run in white/clear polystyrene flat-bottom 384-well plates (Greiner, cat. No. 781095). Assays were carried out in 40 μl reaction volumes. 0.125 μl of a fixed concentration range of test ligands dissolved in DMSO were added to assay plates using an acoustic liquid dispenser.
as §1, §2, §3, §4

[6] = target: T3, recombinant human RORγt LBD (Homo sapiens, UniProt P51449); test: Human RORγt radioligand competition binding assay
T3 sequence (P51449 258-518): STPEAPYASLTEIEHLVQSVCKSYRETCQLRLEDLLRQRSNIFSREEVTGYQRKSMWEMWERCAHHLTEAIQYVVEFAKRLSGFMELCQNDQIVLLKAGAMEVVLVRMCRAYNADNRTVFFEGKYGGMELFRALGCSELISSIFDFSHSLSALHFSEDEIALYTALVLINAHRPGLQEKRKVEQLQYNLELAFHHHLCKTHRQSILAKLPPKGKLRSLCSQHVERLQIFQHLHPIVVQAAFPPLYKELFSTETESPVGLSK
Method: The assay was run in white polystyrene flat-bottom 384-well plates (Greiner, cat. No. 781075). Assays were carried out in 40 μl reaction volumes. A concentration range of test ligands in 0.4 μl of DMSO were added to assay plates using an acoustic liquid dispenser. […] Test plates were incubated for 16 hours and read using a LEADseeker (GE Healthcare, USA) Multimodality imaging instrument.
as §1, §2, §3, §4

[7] = tritiated ligand, used for Ki calculation

## C[C@H]1C[C@H](C(=O)O)CC[C@H]1C(=O)N1CC[C@@]2(S(=O)(=O)c3ccc(F)cc3)c3ccc(C(F)(C(F)(F)F)C(F)(F)F)cc3CC[C@@H]12 [BMS-986251]
Thymic lymphomas [1]
  thymic lymphomas: thymic lymphomas
Thymic lymphomas [2]
  thymic lymphomas: thymic lymphomas

## CC(=O)N1Cc2cc(S(C)(=O)=O)ccc2[C@@H]1C(=O)Nc1ccc(C(O)(C(F)(F)F)C(F)(F)F)cc1 [Compound 5]
[3]; -LOG10(Concentration) 6.5, single points per experiment
  Human Th17 Response (%): -83.16% and -87.655% and -78.367% and -82.722%
[3]; IL-17A in supernatants after 4 days
  Human IL-17A in Th17 cells: 7.8 ± 0.2 (45)
Thymocyte numbers
  effect on thymocyte numbers: did not have a significant effect
Mouse thymocytes
  Thymocyte apoptosis: 6.6 ± 0.1 (4)
Human RORα LBD; -LOG10(Concentration) 4.5
  RORa agonism Response (%): 151.862%
  RORa inverse agonism Response (%): 135.32%
Human RORα LBD; -LOG10(Concentration) 5
  RORa agonism Response (%): 149.498%
  RORa inverse agonism Response (%): 141.906%
Human RORα LBD; -LOG10(Concentration) 5.5
  RORa agonism Response (%): 136.244%
  RORa inverse agonism Response (%): 137.911%
Human RORα LBD; -LOG10(Concentration) 6
  RORa agonism Response (%): 110.728%
  RORa inverse agonism Response (%): 125.139%
Human RORα LBD; -LOG10(Concentration) 6.5
  RORa agonism Response (%): 68.027%
  RORa inverse agonism Response (%): 92.31%
Human RORα LBD; -LOG10(Concentration) 7
  RORa agonism Response (%): 28.348%
  RORa inverse agonism Response (%): 46.105%
Human RORα LBD; -LOG10(Concentration) 7.5
  RORa agonism Response (%): 7.215%
  RORa inverse agonism Response (%): 12.144%
Human RORα LBD; -LOG10(Concentration) 8
  RORa agonism Response (%): 11.627%
  RORa inverse agonism Response (%): 1.673%
Human RORα LBD; -LOG10(Concentration) 8.5
  RORa agonism Response (%): 1.827%
  RORa inverse agonism Response (%): -4.289%
Human RORα LBD; -LOG10(Concentration) 9
  RORa agonism Response (%): 1.839%
  RORa inverse agonism Response (%): -3.197%
[4]
  Mouse PPB (% unbound): 18.6 (1) %
IMQ model; IMQ model
  ear thickness: significantly but partially reduced
IMQ model; repeated daily dosing of 15 mg/kg
  effect in the IMQ model: a larger effect
[5]; -LOG10(Concentration) 5
  Mouse ligand binding Response (%): -100.443% and -98.9%
[5]; -LOG10(Concentration) 5.5
  Mouse ligand binding Response (%): -97.044% and -97.709% and -95.886%
[5]; -LOG10(Concentration) 6
  Mouse ligand binding Response (%): -90.54% and -92.979% and -82.118%
[5]; -LOG10(Concentration) 6.5
  Mouse ligand binding Response (%): -75.979% and -75.927%
[5]; -LOG10(Concentration) 7
  Mouse ligand binding Response (%): -66.593% and -61.493% and -41.548%
[5]; -LOG10(Concentration) 7.5
  Mouse ligand binding Response (%): -41.39% and -32.816% and -24.196%
[5]; -LOG10(Concentration) 8
  Mouse ligand binding Response (%): -17.738% and -1.711% and -32.373%
[5]; -LOG10(Concentration) 8.5
  Mouse ligand binding Response (%): -14.117% and 14.175%
[5]; -LOG10(Concentration) 9
  Mouse ligand binding Response (%): -4.804% and 10.02% and -17.221%
[5]; -LOG10(Concentration) 9.5
  Mouse ligand binding Response (%): -4.804% and 5.051% and -11.899%

## CCS(=O)(=O)c1ccc(CC(=O)Nc2cc(-c3ccccc3COC)cs2)cc1 [2-(4-(ethylsulfonyl)phenyl)-N-(4-(2-(methoxymethyl)phenyl)thiophen-2-yl)acetamide, reference compound]
[6]; the ligand that is used tritiated as radioligand, n = 6
  IC50: 47.9 nM
[6]; [7]
  Kd: 17 nM
[5]; the ligand that is used tritiated as radioligand, n = 3
  IC50: 123 nM
[5]; [7]
  Kd: 45 nM
